No end group written: not given here.
Experiments:
Format in all cases: cell-based
[1] = tested on: BMF transcripts; assay: qPCR for BMF transcripts; conditions: 20 μM, 3 days; T98G, MDA-MB-231, MCF7, A375 and HCT116 cells
Experimental: T98G, MDA-MB-231, MCF7, A375, and HCT116 cells were treated with or without 20 μM CP-dn-CEBPB or CP-dn-CEBPD for 3 days and then assessed by qPCR for relative levels of BMF transcripts (FIG. 35A, T98G; FIG. 35B, MDA-MB-231; FIG. 35C, MCF7; FIG. 35D, A375; FIG. 35E, HCT116).

[2] = tested on: T98G glioblastoma cells; assay: Cell number (growth and survival) after peptide treatment, T98G; conditions: for growth and survival of T98G cells, time course: 10 μM or 20 μM for 1-6 days; for growth and survival of T98G cells, time course / number of T98G cells / morphology, growth and survival of T98G cells: stock without BSA; for number of T98G cells: 6-7 days; for number of T98G cells / effect of BSA in stock buffer on potency in suppressing growth and survival: 0 μM to 50 μM; for morphology, growth and survival of T98G cells: 5 days, 10 or 20 μM (CP-DN-CEBPB), 3, 10, 20 or 50 μM (CP-DN-CEBPD); for effect of BSA in stock buffer on potency in suppressing growth and survival: 6 days, BSA 3 mg/ml in stock, 0.6 mg/ml in medium
Experimental: Replicate T98G glioblastoma cell cultures were exposed to dominant negative (DN) synthetic peptides having an N-terminal penetratin sequence followed by a CEBPB or CEBPD native leucine zipper sequence (CP-DN-CEBPB or CP-DN-CEBPD, respectively) for 5 days at final concentrations of 10 μM or 20 μM (CP-DN-CEBPB) or 3 μM, 10 μM, 20 μM or 50 μM (CP-DN-CEBPD). Stock solutions of the peptides were prepared in buffer without added bovine serum albumin (BSA).
Replicate T98G glioblastoma cell cultures were exposed to CP-DN-CEBPB or CP-DN-CEBPD, for 6-7 days at doses of 0 μM to 50 μM. […] Stock solutions of the peptides were prepared in buffer without added bovine serum albumin (BSA).
Replicate T98G cell cultures were exposed to CP-DN-CEBPB or CP-DN-CEBPD peptides (10 μM or 20 μM) for 1, 2, 3, 4, 5, or 6 days. […] Values shown in FIG. 7A and FIG. 7B represent means from 3 replicate cultures. Stock solutions of the peptides were prepared in buffer without added bovine serum albumin (BSA).
Four replicate cultures of T98G cells were treated for 6 days with a cell penetrating dominant negative CEBPB (CP-DN-CEBPB; FIG. 8A) or a cell penetrating dominant negative CEBPD (CP-DN-CEBPD; FIG. 8B) at doses of 0 μM to 50 μM, with or without bovine serum albumin (BSA). […] Concentration of BSA in the stock solution, when present, was 3 mg/ml. The final concentration of BSA in the cell culture medium was 0.6 mg/ml. Values represent means of determinations made on 4 replicate cultures for each condition.
(§1) Replicate cultures of HCT116, MDA-MB 231, MCF7, and T98G cells were exposed to a 50/50 by concentration mixture of CP-DN-CEBPB and CP-DN-CEBPD for 6 days at doses of 0 μM to 50 μM. Stock solutions of the peptides were prepared in buffer without added bovine serum albumin (BSA).
(§2) Replicate cultures of T98G, HCT116, MDA-MB 231, and MCF7 cells were exposed to CP-DN-CEBPB, CP-DN-CEBPD, or a CP-DN-CEBPD in which heptad repeat leucine residues were mutated to glycine residues for 6 days at doses of 0 μM to 50 μM. Stock solutions of the peptides were prepared in buffer without added bovine serum albumin (BSA).

[3] = tested on: HCT116 colon cancer cells; assay: Cell number after peptide treatment, HCT116; conditions: 6 days, 0 μM to 50 μM; stock without BSA
Experimental: (§3) Replicate cultures were exposed to the peptides the for 6 days at the indicated concentrations. Stock solutions of the peptides were prepared in buffer without added bovine serum albumin (BSA).
as §1, §2

[4] = tested on: MCF7 breast cancer cells; assay: Cell number after peptide treatment, MCF7; conditions: 6 days, 0 μM to 50 μM; stock without BSA
Experimental: as §3, §1, §2

[5] = tested on: T98G cells; assay: Colony forming activity in soft agar, T98G; conditions: 6 days; doses 0.05, 0.5 and 5 μM
Experimental: T98G (FIG. 21A), MDA-MB 231 (FIG. 21B), and HCT116 (FIG. 21C) cells were exposed to CP-DN-CEBPB and CP-DN-CEBPD for 6 days at doses of 0.05 μM 0.5 μM, and 5 μM while growing in soft agar. Growth was inhibited by does as low as 0.5 μM. T98G (FIG. 21D), MDA-MB 231 (FIG. 21E), and HCT116 (FIG. 21F) cells were exposed to CP-DN-CEBPB and CP-DN-CEBPD for 6 days at doses of 0.05 μM 0.5 μM, and 5 μM while growing on culture plates. Growth was inhibited by does as low as 0.5 μM.

[6] = tested on: HIEC-6 non-cancer human intestinal epithelial cells; assay: Morphology after peptide treatment, HIEC-6; conditions: 5 to 6 days, 20 μM or 50; stock without BSA
Experimental: Stock solutions of the peptides were prepared in buffer without added bovine serum albumin (BSA).

[7] = tested on: MDA-MB-231 cells; assay: Apoptotic nuclei, propidium iodide flow cytometry, MDA-MB-231; conditions: 20 μM, 3 days, vs untreated cells
Experimental: MDA-MB-231, MCF7, HCT116 and T98G cancer cell lines were treated for 3 days with 20 μM CP-dn-CEBPB and CP-dn-CEBPD peptides from stock solutions prepared without additives. Cultures were stained with propidium iodide and assessed for proportion of cells with apoptotic nuclei by flow cytometry.

Row | Sequence | relative levels of BMF transcripts [1] | growth and survival of T98G cells, time course [2] | number of T98G cells [2] | morphology, growth and survival of T98G cells [2] | effect of BSA in stock buffer on potency in suppressing growth and survival [2] | growth and survival / numbers of HCT116 cells [3] | growth and survival / numbers of MCF7 cells [4] | lowest dose at which growth was inhibited, soft agar [5] | morphology of HIEC-6 cells [6] | proportion of cells with apoptotic nuclei [7]
1 | RQIKIWFQNRRMKWKKLETQHKVLELTAENERLQKKVEQLSRELSTLRNLFKQL [CP-DN-CEBPB] | upregulate pro-apoptotic BMF | decreased as compared to untreated control cells | dose-responsively decreased | dose-responsively affected the morphology, growth and survival | greatly increased the potency | decrease in growth and survival | decrease in growth and survival | 0.5 µM | did not affect the morphology | increased apoptotic cell death
2 | RQIKIWFQNRRMKWKKLVELSAENEKLHQRVEQLTRDLAGLRQFFK [CP-DN-CEBPD] | upregulate pro-apoptotic BMF | decreased as compared to untreated control cells | dose-responsively decreased | dose-responsively affected the morphology, growth and survival | greatly increased the potency | decrease in growth and survival | decrease in growth and survival | 0.5 µM | did not affect the morphology | increased apoptotic cell death
